Bridges are numbered along the chain shown (N, C = ends). Roman numbers before positions name the chains, in order. Where no end group is shown, it is not given here.
Experiments:
transferrin [1] = molecular target: T1, transferrin (Homo sapiens, UniProt P02787); experiment: SPR of lysine-linked synbodies on immobilized transferrin, Kd from kinetics; type: binding; conditions: Kd determined from kinetics; read-out: Kd with respect to transferrin
Description: Transferrin 25 μg/ml in immobilization buffer selected for correct pH was then applied 302 at a flow rate of 5 to 10 μl/min for a contact time of about 5 to 10 minutes, allowing the amine functionality on the transferrin 308 to displace the activated NHS ester and bond to the surface via an amide bond. Finally, ethylene diamine (1-Methylene diamine-HCl at pH 8.5) was applied 304 at a flow rate of 5 to 10 μl/min for a contact time of about 6 to 7 minutes to deactivate any remaining reactive groups on the dextran chip surface. Flow rates and contact times are adjusted as necessary to provide the surface concentration of target desired for the intended application, and may vary by target. In general, for evaluating whether binding occurs, it is preferable to immobilize a relatively large quantity of target, and higher flow rates and/or longer contact times may be used. For determining kinetics, it is preferable to limit the amount of target immobilized so as to minimize rebinding and avidity effects, and lower flow rates and/or contact times may be used.
Candidate affinity elements for the transferrin synbody TRF19, TRF21, TRF23, TRF24, TRF25, and TRF26 were individually evaluated for solution phase KD with respect to transferrin by SPR analysis. […]

AKT1 = AKT1 (Homo sapiens, UniProt P31749); experiment: SPR of SYN23-26 binding to AKT1; conditions: read-out: estimated Kd with respect to AKT1
[2] = test system: 8,000 human proteins (GST fusion); experiment: Invitrogen Protoarray Human Protein Microarray binding pattern (8,000 features); conditions: fluorescence intensity on human protein microarray
Description: Two biotinylated anti-TRF synbodies (SYN23-26 and SYN 21-22) were applied to a protein microarray having 8,000 features (Invitrogen Protoarray Human Protein Microarray v. 4.0 for immune response biomarker profiling), each feature comprising a distinct human protein (GST fusion) adsorbed to a nitrocellulose coated slide. Application of the synbodies to the microarray was performed in accordance with manufacturer instructions: (see ProtoArray Human Protein Microarray, Invitrogen, Catalog no. PAH052401, Version B, 15 Dec. 2006, 25-0970, Users Manual.) After blocking the array with 1% BSA/PBS/0.1% Tween for 1 hour at 4C with gentle shaking, 120 μl of probing buffer (1×PBS, 5 mM mgC12, 0.5 mM DTT, 0.05% Triton X-100, 5% glycerol, 1% BSA) with synbody was applied to the array. The prescribed cover slip was placed over the array and adjusted to remove air bubbles. The array was incubated in a 50 ml conical tube, printed side up, for 1.5 hours at 4C without shaking. The array was then removed from the conical tube inserted diagonally into the array chamber, kept on ice. 8 ml probing buffer was added to the chamber wall. The cover slip was removed and the array was incubated in probing buffer for 1 minute on ice. […] The array was dried in the dark for 60 minutes at room temperature, after which it was scanned using a fluorescent microarray scanner and data was taken and analyzed.

transferrin [3] = molecular target: T1, transferrin; experiment: SPR of SYN23-26 binding to transferrin; conditions: read-out: estimated Kd with respect to transferrin

T1 sequence (P02787 20-698): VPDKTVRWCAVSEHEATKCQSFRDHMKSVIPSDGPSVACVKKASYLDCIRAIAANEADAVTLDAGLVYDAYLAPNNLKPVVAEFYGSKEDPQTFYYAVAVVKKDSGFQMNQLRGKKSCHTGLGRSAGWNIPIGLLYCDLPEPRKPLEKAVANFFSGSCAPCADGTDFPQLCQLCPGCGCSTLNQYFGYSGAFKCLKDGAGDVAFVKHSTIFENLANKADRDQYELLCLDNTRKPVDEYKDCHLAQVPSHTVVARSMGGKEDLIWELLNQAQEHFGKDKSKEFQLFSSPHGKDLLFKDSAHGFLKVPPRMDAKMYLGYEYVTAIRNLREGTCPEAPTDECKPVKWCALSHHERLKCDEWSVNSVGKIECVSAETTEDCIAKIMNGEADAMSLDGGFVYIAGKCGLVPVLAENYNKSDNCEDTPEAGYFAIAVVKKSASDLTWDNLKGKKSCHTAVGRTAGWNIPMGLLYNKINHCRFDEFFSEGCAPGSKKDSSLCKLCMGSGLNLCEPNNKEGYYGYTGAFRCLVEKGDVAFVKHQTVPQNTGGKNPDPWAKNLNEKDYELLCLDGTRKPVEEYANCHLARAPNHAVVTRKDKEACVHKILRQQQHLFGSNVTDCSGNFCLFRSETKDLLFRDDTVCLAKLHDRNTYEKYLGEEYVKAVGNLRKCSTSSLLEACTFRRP
Sequence of AKT1 (P31749 whole entry, the tested form may be a part): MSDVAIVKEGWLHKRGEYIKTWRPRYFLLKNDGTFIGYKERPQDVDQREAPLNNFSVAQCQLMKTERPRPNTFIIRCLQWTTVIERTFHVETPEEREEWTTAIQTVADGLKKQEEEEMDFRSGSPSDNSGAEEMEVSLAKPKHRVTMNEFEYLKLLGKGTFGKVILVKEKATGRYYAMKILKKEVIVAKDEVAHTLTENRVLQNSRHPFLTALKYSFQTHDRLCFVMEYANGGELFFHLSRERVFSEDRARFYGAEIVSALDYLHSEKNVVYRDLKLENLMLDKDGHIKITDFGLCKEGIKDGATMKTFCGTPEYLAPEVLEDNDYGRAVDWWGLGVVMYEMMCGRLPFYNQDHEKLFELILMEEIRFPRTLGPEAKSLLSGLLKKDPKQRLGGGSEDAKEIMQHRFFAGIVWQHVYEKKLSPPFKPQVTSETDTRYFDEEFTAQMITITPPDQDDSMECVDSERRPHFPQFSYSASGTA

Kd (transferrin [1]): 150 ± 50 nM
Kd (AKT1): ~1 nM
highest affinity target from a library of 8,000 [2]: PCCA
Kd (transferrin [3]): ~141 nM
Substance: I: AHKVVPQRQIRHAYNRYGSGKC / II: FRGWAHIFFGPHVIYRGGSG (amide I:21-II:C) [SYN23-26]
